Experimental findings from patent US20050276794A1, “Composition and method for improving pancreatic islet cell survival” (priority 2004, published 2005) are described below.

The test system of one assay is isolated islet cells. Format: cell-based. The method, then:
Single islets were hand-picked from a Petri dish under microscopy and transferred to wells in a 96-well microculture plate. Micronutrients comprising alpha-tocopherol (50 μM), gamma-tocopherol (50 μM), and succinate (5 μM) were added to wells in various combinations, with regular media (no added micronutrients) used as control. Islet cell survival was indicated by maintenance of a more compact cell mass, with disruption of the cell mass indicating islet cell death detected by microscopic means. […] Samples are shown in duplicate (a—middle panel, and b—bottom panel), with the corresponding control in the top panel.

For the next assay, the system named is porcine islets. The experiment in a line: Islet morphology under anoxia (photomicrographs). Format: cell-based. The following applies: 100 μM alone; up to 30 hrs anoxia; versus untreated islets. The method, then: Porcine islets were hand picked and placed in wells (one islet/well in triplicates) in a 96 micro plate. The islets were pre-incubated either in regular porcine culture media (M199) or in media supplemented with alpha-tocopherol 100 μM, gamma-tocopherol 100 μM or the combination of alpha-+gamma-tocopherol, 50 μM each prior to exposure to anoxia. Islets were then incubated for additional 30 hrs either under normoxia (control—95% Air, 5%CO2) or anoxia (95%N2, 5%CO2) in the presence or absence of the indicated vitamin E concentration. At four different time points (0 h, 12 h, 24 h and 30 h), islets were removed from the incubator, examined microscopically and photomicrographs were obtained. Panel A: Porcine islets cultured with regular porcine culture media (M199) under anoxia. As indicated by the photomicrographs, anoxia caused a significant change in to the islet morphology. […]
Porcine islets were isolated and then cultured for 48 hours according to standard protocols Islets were then cultured for an additional 18-24 hours in media in the presence or absence of alpha-tocopherol and gamma-tocopherol (50 μM each). […] Islet quality was assessed at time intervals ranging from 6 to 24 hours from the initiation of exposure to anoxia with Oxygen Consumption Rate (OCR), ATP, Caspase 3/7 activity measurements (all normalized to DNA), microphotography and transplantation into diabetic nude mice. […]

Where [1] appears, read: isolated islet cells in culture medium.

Each structure is given as a SMILES string.

As for `Cc1c(O)cc2c(c1C)O[C@](C)(CCC[C@H](C)CCC[C@H](C)CCCC(C)C)CC2` [gamma-tocopherol], the “protective benefit for preventing cell death in isolated islet cells (comparison)” value with isolated islet cells (compared with alpha-tocopherol or either tocopherol alone) is given as “more protective benefit”. For the same compound, the “islet morphology after exposure to anoxia” value in the assay with porcine islets was “more normal morphology”.

As to `Cc1c(C)c2c(c(C)c1O)CC[C@@](C)(CCC[C@H](C)CCC[C@H](C)CCCC(C)C)O2` [alpha-tocopherol], in the assay on isolated islet cells (setting [1]), the “concentration at which increased benefit is noted” value was “at least 50 μM” and the “concentration at which protective effect is exhibited” value is “at least 10 μM”. For the same compound, the “islet morphology after exposure to anoxia” value with porcine islets is “more normal morphology”.
